System: antigen induced bronchospasm
Test: inhibition of antigen induced bronchospasm in passively sensitized guinea pigs
Assay type: in vivo, guinea pig
Conditions: 5 minutes before antigen, evaluated 3 minutes after antigen
Method: Specifically, tests were run as follows:
The antigen is twice recrystallized egg albumin.
The animals were bled and the pooled serum stored at -20° C.
Injections of 0.5 ml antiserum of 1:50 dilution were given i.v. 24-48 h before challenge.
Guinea pigs were anaesthetized with pentobarbital sodium (40 mg/kg i.p.). Cannulae were tied into the trachea and the jugular vein and the lung inflated with a pump at a rate of 72 strokes/min and a constant stroke volume of 6-8 ml.
Bronchospasm, provoked by injecting ovalbumin i.v. was measured as described by Konzett, H. and R. Rossler, "Versuchsanordnung und Untersuchungen an der Bronchialmuskulatur" Naunyn-Schmiedebergs, Arch. exp. Path. Pharmak.
The drugs were applied intravenously 5 minutes before the antigen.
For calculation the following formula was used: [formula] b=Bronchospasm after antigen injection, measured in mm from tracing m=maximum height of tracing in mm with arm of the treachea-cannula clamped
a=pre injection height of the tracing in mm

Row | Structure (SMILES) | % inhibition Br Sp (antigen induced bronchospasm) (0.1 mg/kg i.v.) | % inhibition Br Sp (antigen induced bronchospasm) (0.38 mg/kg i.v.) | further results
1 | Cc1ccccc1C(=O)NC1CCN(CCCn2cnc3c2c(=O)n(C)c(=O)n3C)CC1 [Example 2d, 7-{3-[4-(2-methylbenzamido)-piperidino]-propyl}-theophylline] | 60% | – | –
2 | Cn1c(=O)c2c(ncn2CCCN2CCC(NC(=O)Cc3ccccc3)CC2)n(C)c1=O [Example 2e, 7-[3-(4-phenylacetamidopiperidino)-propyl]-theophylline] | – | 68% | –
3 | CC(=O)NC1CCN(CCCn2cnc3c2c(=O)n(C)c(=O)n3C)CC1 [Example 2c, 7-[3-(4-acetamidopiperidino)-propyl]-theophylline] | – | 37% | –
4 | Cn1c(=O)c2[nH]cnc2n(C)c1=O [Aminophylline, reference compound] | – | – | % inhibition Br Sp (antigen induced bronchospasm) (24 mg/kg i.v.): 29%
5 | Cn1c(=O)c2c(ncn2CCCN2CCC(NC(=O)c3ccccc3O)CC2)n(C)c1=O [Example 4a, 7-{3-[4-(2-hydroxybenzamido)-piperidino]-propyl}-theophylline] | 82% | – | –
6 | Cn1c(=O)c2c(ncn2CCCN2CCC(NC(=O)c3cccs3)CC2)n(C)c1=O [Example 4d, 7-{3-[4-(thiophene-2-carboxamido)-piperidino]-propyl}-theophylline] | 38% | – | –

From patent US4284633A, “Derivatives of xanthine” (Boehringer Mannheim GmbH, priority 1979, dated 1981)
